According to patent US20250009844A1, “MATURATION OF MUCOSAL DEFENSE AND GUT/LUNG FUNCTION IN THE PRETERM INFANT” (Novozymes A/S, priority 2017, published 2025):
“Also recorded” adds a separate entry of the source. No end group written: not given here.

Assays:
Format in all cases: in vivo
[1] = system: SCID mice; experiment: Therapeutic, murine, 14 weeks, CD4+CD25+ T cell transfer induced colitis model (Example 4)
Source text: Treatment regime: 70 female BALB/c mice housed in groups of five per cage were allocated to 7 different treatment groups. Colitis was induced in SCID mice by transplantation of CD4+CD25 Tcells from BALB/c mice. Lymphocytes isolated from spleen and lymph nodes from BALB/c mice were subjected to negative selection of CD4+Tcells. Afterwards, CD4+CD25+cells were positively isolated by binding to the beads from the CD4+Tcell suspensions and the CD4+CD25—were collected from the supernatant. The animals were treated with hBD-2, 0.1 mg/kg s.c. once daily 86consecutive days from day 7 (OD); 1 mg/kg s.c. OD or 3 mg/kg s.c. OD;with mouse anti TNFa 100 μg/mouse s.c. twice weekly (enbrel); with dexamethasone 0.3 mg/kg intraperitoneally OD (dex); with PBS s.c. as vehicle from day 7 and 86 consecutive days (vehicle) or sham treated (sham).
Treatment groups: • 1. 0.1 mg/kg hBD-2, once daily subcutaneously (n=11) • 2. 1 mg/kg hBD-2, once daily subcutaneously (n=11) • 3. 3 mg/kg hBD-2, once daily subcutaneously (n=11) • 4. PBS (hBD-2 vehicle), once daily subcutaneously (n=11) • 5. 0.3 mg/kg Dexamethasone, once daily intraperitoneally (n=11) • 6. 100 μg/mouse soluble human 75-kilodalton TNF receptor linked to Fc portion of IgG1 (Enbrel), twice a week subcutaneously (n=11) • 7. Sham treated group (n=6)
Clinical assessment was based on body weight loss, stool consistency and presence of blood per rectum. The animals were sacrificed on day 95 and colon removed for assessment of weight and myeloperoxidase activity.

[2] = system: BALB/c mice; experiment: Murine model of acute graft versus host disease, oral hBD-2 versus cyclosporine (Example 12)
Method: (§1) Treatment regime: 20 female BALB/c mice were irradiated with 4.5 Gy (2×498 sec) at intervals of at least 4 hours on day 0. Bone marrow was harvested: hind limbs harvested from 2 female WT C57BL/6 mice aseptically. Skeletal muscle was removed and epiphysis cut away. Lumen of bone flushed with PBS and cells pelleted and taken up. Harvest of T-cells: spleens from 2 female WT C57BL/6 mice were meshed through a […] cell strainer into a PBS filled dish. Cells were taken up in PBS and transferred into a 50 mL falcon tube and spun down. Cells were taken up in 1 mL PBS and 20 μL of CD4 microbead +20 μL CD8 microbeads per spleen added for incubation for 20 min at 4 degrees C. Cells were washed with PBS and applied to MACS separation in order to positively select CD4+ and CD8+ cells. Positively selected T-cells were counted and taken up. Transplantation: directly after the second irradiation, all WT BALB/c recipient mice were injected with 5×1.000.000 BM cells (50 μL) i.v. into the retroorbital venous plexus under isoflurane anesthesia. 20 BALB/c mice were treated with 1.2 mg of hBD2/kg BW/day (n=7); 50 mg cyclosporine/kg BW on days 0, 3, 6 and 9 (n=7) or 100 uL PBS per day vial oral gavage (n=6) from day 0-10.
The mice were weighed at regular intervals during the study and survival was monitored for 90 days.

[3] = system: BALB/c mice; experiment: Murine model of acute graft versus host disease, oral HD5 (Example 13)
Method: as §1, with “regime: 22” for “regime: 20”, “anesthesia. 22” for “anesthesia. 20”, “of HD5/kg BW/day; 1.2 mg of hBD-2/kg” for “of hBD2/kg”, “BW/day” for “BW/day (n=7); 50 mg cyclosporine/kg BW on days 0, 3, 6 and 9 (n=7)”, “100 μL of” for “100 uL”, “gavage” for “gavage (n=6)”
Survival was monitored for 60 days.

[4] = system: BALB/c mice; experiment: Murine model of acute graft versus host disease following stem cell transplantation, oral hBD-2 (Example 11); settings: for Intestinal T cell infiltration / Myeloid cell infiltration / Infiltration with CD45+ leucocytes: lamina propria; for Infiltration with CD45+ leucocytes: FACS analysis
Method: as §1, with “Bone” for “Treatment regime: 20 female BALB/c mice were irradiated with 4.5 Gy (2×498 sec) at intervals of at least 4 hours on day 0. Bone”, “CD4 microbead+20” for “CD4 microbead +20”, “anesthesia. 15” for “anesthesia. 20”, “BW/day in” for “BW/day (n=7); 50 mg cyclosporine/kg BW on days 0, 3, 6 and 9 (n=7) or”, “100 μL” for “100 uL”, “gavage” for “gavage (n=6)”
15 BALB/c mice received vehicle 100 μL PBS per day via oral gavage from day 0-10.
The mice were weighed daily for the initial 7 days and survival was monitored for 100 days.

[5] = same three dosing regimens, sacrifice day 95

human beta defensin 2 (GIGDPVTCLKSGAICHPVFCPRRYKQIGTCGLPGTKCCKKP; ends and bridges not checked; cysteine pairing not given here; listed as Homo sapiens) [hBD-2]
Clinical score (body weight loss, stool consistency, blood per rectum) ([1]; hBD-2 1 mg/kg s.c. OD, Dexamethasone 0.3 mg/kg i.p. OD, Enbrel 100 μg/mouse s.c. twice weekly, from day 7): statistically significant and similar effect on clinical score; also recorded: on par with 100 μg/mouse anti TNF-α s.c. twice weekly (Enbrel) and 0.3 mg/kg dexamethasone | Colon weight [1, 5]: statistically significant and similar effect on colon weight; also recorded: on par with 100 μg/mouse anti TNF-α s.c. twice weekly (Enbrel) and 0.3 mg/kg dexamethasone | Myeloperoxidase activity in intestinal tissue [1, 5]: statistically significant and similar effect; also recorded: on par with 100 μg/mouse anti TNF-α s.c. twice weekly (Enbrel) and 0.3 mg/kg dexamethasone | Mortality ([2]; 7 mice oral hBD-2 for 10 days, p=0.03): statistically significant reduction of mortality | Weight loss following bone marrow transplantation ([2]; compared with the PBS treated mice): lost statistically significantly less weight | Animals that had died by day 90 ([2]; hBD2 1.2 mg/kg BW/day day 0-10 (n=7), cyclosporine 50 mg/kg BW on days 0, 3, 6 and 9 (n=7), PBS n=6, all but one died): 1 | Animals that had died by day 60 ([3]; 1.2 mg/kg BW/day oral gavage day 0-10, HD5 group of 8, PBS six out of eight died): none | Mortality ([3]; 22 mice, oral treatment for 10 days): significant reduction of mortality | Mortality ([4]; 15 mice oral hBD-2 for 10 days vs 15 mice PBS, p<0.0001): highly statistically significant reduction of mortality | Share of treated mice that had died by day 35 ([4]; 15 mice, 1.2 mg/kg BW/day oral gavage day 0-10): less than 30% | Mice that had died by day 35 ([4]; 15 mice, 1.2 mg/kg BW/day oral gavage day 0-10, all 15 vehicle mice had died by day 35): 4 | Mice still alive by day 100 ([4]; 15 mice, 1.2 mg/kg BW/day oral gavage day 0-10, p<0.0001): 8 | IL-1β from myeloid cells ([4]; FACS analysis of the spleen): Reduced IL-1B production in myeloid cells; also recorded: reduction of IL-1β from myeloid cells | Neutrophils ([4]; FACS analysis of the spleen): Reduced proportion of neutrophils; also recorded: reduced number of neutrophils | Th1 cytokine production, IFN-γ ([4]; FACS analysis of the spleen, CD4, CD8 and CD69+CD4 T cells): reduced Th 1 cytokine production; also recorded: reduced Th1 cytokine production | Th1 cytokine production, TNF-α ([4]; FACS analysis of the spleen, CD4 and CD8 T cells): reduced Th 1 cytokine production; also recorded: reduced Th1 cytokine production | Weight loss ([4]; first 7 days following bone marrow transplantation): lost statistically significantly less weight | Microarray analysis of colon samples ([4]; hBD-2 treated group versus PBS): decreased inflammation, leucocyte and myeloid cell migration and tissue remodelling | Intestinal T cell infiltration [4]: Reduction of intestinal T cell and myeloid cell infiltration | Myeloid cell infiltration [4]: Reduction of intestinal T cell and myeloid cell infiltration | Infiltration with CD45+ leucocytes [4]: Reduced CD45+leucocyte cell migration | Infiltration with CD45+ leucocytes ([4]; listed as hBD2): reduced the infiltration | Intestinal T cell infiltration ([4]; listed as hBD2): reduced | Myeloid cell infiltration ([4]; listed as hBD2): reduced | IL-6 concentration ([4]; serum): reduction of TNF-α and IL-6 concentrations | IL-10 concentration ([4]; serum): increased concentration of IL-10 | TNF-α concentration ([4]; serum): reduction of TNF-α and IL-6 concentrations | Histology score of the colon ([4]; vs PBS): statistically significant reduction of histology score; also recorded: highly statistically lower | Histology score of the liver ([4]; vs PBS): statistically significant reduction of histology score; also recorded: highly statistically lower | Histology score of the small intestine ([4]; vs PBS): statistically significant reduction of histology score; also recorded: highly statistically lower
